ChEMBL document CHEMBL4699477, “Tricyclic sulfones as potent, selective and efficacious RORγt inverse agonists - Exploring C6 and C8 SAR using late-stage functionalization” (Bioorg Med Chem Lett, 2020)
Converted amounts (≈) assume the structure as drawn.

What was measured:
[1] = Fraction unbound in human plasma; assay type: ADME, cell-free
[2] = biological target: Voltage-gated inwardly rectifying potassium channel KCNH2 (Homo sapiens, UniProt Q12809); test: Inhibition of human ERG by patch clamp assay
Voltage-gated inwardly rectifying potassium channel KCNH2, sequence (Q12809 whole entry): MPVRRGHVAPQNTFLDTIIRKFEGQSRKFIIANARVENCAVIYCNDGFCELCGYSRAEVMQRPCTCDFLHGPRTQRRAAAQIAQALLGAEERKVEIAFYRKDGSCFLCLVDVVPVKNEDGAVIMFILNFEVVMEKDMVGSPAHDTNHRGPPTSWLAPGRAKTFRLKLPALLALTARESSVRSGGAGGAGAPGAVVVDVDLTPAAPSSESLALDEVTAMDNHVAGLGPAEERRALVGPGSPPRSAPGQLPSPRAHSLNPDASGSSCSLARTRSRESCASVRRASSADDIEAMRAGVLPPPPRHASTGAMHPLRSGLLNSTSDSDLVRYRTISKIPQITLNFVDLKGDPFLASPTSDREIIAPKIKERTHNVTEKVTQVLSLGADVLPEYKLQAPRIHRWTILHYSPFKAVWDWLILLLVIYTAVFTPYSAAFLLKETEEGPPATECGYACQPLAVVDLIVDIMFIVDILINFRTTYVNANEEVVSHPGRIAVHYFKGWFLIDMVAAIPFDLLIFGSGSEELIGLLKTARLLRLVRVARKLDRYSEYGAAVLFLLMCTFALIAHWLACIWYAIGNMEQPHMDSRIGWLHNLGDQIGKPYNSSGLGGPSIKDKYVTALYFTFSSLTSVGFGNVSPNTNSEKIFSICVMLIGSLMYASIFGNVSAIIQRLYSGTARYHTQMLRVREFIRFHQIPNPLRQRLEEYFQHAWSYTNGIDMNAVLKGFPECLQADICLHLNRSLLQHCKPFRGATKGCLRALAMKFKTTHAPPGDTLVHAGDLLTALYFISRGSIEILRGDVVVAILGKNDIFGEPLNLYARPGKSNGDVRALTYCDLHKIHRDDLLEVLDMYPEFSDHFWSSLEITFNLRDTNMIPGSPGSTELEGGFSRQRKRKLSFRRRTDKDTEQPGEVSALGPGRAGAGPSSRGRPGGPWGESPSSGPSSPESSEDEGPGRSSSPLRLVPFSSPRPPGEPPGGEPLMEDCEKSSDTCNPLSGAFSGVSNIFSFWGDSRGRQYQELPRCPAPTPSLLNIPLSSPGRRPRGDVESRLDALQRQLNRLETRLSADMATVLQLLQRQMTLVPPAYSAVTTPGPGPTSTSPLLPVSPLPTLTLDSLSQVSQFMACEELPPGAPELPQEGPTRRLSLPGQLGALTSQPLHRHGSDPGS

[3] = Half life in dog at 1 mg/kg, iv; assay type: ADME, organism-based, Canis lupus familiaris; conditions: in vivo
[4] = Clearance in cynomolgus monkey at 1 mg/kg, iv; assay type: ADME, organism-based, Macaca fascicularis; conditions: in vivo
[5] = Clearance in dog at 1 mg/kg, iv; assay type: ADME, organism-based, Canis lupus familiaris; conditions: in vivo
[6] = Total AUC in BALB/c mouse at 2 mg/kg, iv; assay type: ADME, organism-based; set-up: route intravenous, time AUCmax, dose 2 mg/kg; conditions: in vivo
[7] = Oral bioavailability in rat at 4 mg/kg; assay type: ADME, organism-based; conditions: in vivo
[8] = biological target: Cytochrome P450 3A4 (Homo sapiens, UniProt P08684); test: Inhibition of recombinant CYP3A4 (unknown origin); assay type: ADME
Cytochrome P450 3A4, sequence (P08684 whole entry): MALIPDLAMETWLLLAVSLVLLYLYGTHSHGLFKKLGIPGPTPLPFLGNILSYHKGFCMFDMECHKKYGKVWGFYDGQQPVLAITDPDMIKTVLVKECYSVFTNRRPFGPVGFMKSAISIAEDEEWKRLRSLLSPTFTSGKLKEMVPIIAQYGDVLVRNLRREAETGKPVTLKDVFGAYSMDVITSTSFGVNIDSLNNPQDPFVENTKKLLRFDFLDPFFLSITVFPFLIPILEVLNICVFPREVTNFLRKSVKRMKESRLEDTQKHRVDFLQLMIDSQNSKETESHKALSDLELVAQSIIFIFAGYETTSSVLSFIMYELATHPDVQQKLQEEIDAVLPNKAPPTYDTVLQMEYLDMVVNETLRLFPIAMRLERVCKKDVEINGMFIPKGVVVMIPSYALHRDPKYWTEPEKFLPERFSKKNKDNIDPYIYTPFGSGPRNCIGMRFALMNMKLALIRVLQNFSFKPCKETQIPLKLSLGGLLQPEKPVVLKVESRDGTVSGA

[9] = Total AUC in dog at 2 mg/kg, po; assay type: ADME, organism-based, Canis lupus familiaris; set-up: time AUCmax, route oral, dose 2 mg/kg; conditions: in vivo
[10] = Volume of distribution at steady state in rat at 2 mg/kg, iv; assay type: ADME, organism-based; conditions: in vivo, read-out: Vdss
[11] = biological target: Cytochrome P450 2D6 (Homo sapiens, UniProt P10635); test: Inhibition of recombinant CYP2D6 (unknown origin); assay type: ADME
Cytochrome P450 2D6, sequence (P10635 whole entry): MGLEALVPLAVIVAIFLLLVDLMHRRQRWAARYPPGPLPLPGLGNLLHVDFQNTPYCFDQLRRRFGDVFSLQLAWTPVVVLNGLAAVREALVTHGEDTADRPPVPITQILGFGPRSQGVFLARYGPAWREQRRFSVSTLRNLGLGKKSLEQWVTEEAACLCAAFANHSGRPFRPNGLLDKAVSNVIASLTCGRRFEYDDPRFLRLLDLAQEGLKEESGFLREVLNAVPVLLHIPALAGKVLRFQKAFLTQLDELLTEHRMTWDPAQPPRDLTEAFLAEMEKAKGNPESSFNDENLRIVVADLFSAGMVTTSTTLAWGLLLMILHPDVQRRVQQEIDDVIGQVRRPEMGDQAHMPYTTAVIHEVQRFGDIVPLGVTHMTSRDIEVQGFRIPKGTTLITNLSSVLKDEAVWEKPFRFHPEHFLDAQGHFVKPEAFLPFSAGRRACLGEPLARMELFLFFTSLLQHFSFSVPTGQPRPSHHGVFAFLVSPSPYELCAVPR

[12] = Total AUC in dog at 1 mg/kg, iv; assay type: ADME, organism-based, Canis lupus familiaris; set-up: route intravenous, time AUCmax, dose 1 mg/kg; conditions: in vivo
[13] = biological target: T1, Cytochrome P450 1A2 (Homo sapiens, UniProt P05177); test: Inhibition of recombinant CYP1A2 (unknown origin); assay type: ADME
T1 sequence (P05177 whole entry): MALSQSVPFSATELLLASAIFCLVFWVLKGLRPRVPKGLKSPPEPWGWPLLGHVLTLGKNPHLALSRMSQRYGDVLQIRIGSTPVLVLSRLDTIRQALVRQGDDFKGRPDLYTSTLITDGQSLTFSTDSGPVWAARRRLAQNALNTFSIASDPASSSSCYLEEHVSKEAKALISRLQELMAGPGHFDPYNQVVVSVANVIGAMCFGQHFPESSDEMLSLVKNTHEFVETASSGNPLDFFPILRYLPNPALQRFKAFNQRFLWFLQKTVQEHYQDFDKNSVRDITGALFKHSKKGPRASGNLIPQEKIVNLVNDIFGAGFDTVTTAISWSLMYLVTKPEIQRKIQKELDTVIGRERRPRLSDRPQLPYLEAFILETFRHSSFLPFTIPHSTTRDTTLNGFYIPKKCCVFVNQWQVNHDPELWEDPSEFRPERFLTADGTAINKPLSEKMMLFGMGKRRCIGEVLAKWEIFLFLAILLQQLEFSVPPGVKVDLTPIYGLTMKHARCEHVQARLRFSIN

[14] = biological target: Cytochrome P450 2C19 (Homo sapiens, UniProt P33261); test: Inhibition of recombinant CYP2C19 (unknown origin); assay type: ADME
Cytochrome P450 2C19, sequence (P33261 whole entry): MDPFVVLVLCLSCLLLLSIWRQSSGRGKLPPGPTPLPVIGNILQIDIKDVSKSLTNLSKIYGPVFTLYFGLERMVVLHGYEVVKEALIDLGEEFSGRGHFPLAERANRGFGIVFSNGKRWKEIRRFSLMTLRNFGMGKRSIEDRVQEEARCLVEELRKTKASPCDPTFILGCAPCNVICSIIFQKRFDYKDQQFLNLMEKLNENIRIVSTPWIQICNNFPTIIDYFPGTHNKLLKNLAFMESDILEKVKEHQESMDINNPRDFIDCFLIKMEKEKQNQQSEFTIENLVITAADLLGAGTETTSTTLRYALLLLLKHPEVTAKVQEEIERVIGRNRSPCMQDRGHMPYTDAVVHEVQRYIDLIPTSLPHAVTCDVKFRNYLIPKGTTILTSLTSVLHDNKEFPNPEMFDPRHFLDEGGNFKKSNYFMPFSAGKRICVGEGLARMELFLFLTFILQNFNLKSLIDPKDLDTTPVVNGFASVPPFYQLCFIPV

[15] = biological target: T2, Oxysterols receptor LXR-beta (Homo sapiens, UniProt P55055); test: Inverse agonist activity of LXRbeta (unknown origin)
T2 sequence (P55055 whole entry): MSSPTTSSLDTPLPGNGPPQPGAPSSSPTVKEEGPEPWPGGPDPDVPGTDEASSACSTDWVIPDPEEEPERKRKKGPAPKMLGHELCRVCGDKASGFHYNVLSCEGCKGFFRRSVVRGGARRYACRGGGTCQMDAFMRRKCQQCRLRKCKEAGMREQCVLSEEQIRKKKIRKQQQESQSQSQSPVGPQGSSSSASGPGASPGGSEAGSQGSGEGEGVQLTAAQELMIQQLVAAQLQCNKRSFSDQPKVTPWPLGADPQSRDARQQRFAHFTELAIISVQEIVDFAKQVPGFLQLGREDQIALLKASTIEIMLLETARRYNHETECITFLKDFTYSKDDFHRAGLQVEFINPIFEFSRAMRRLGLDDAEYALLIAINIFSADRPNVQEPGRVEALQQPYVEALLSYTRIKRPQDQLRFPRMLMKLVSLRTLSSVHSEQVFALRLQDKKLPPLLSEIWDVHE

[16] = Fraction unbound in mouse plasma; assay type: ADME, cell-free
[17] = Oral bioavailability in cynomolgus monkey at 2 mg/kg; assay type: ADME, organism-based, Macaca fascicularis; conditions: in vivo
[18] = biological target: T3, Oxysterols receptor LXR-alpha (Homo sapiens, UniProt Q13133); test: Inverse agonist activity of LXRalpha (unknown origin)
T3 sequence (Q13133 whole entry): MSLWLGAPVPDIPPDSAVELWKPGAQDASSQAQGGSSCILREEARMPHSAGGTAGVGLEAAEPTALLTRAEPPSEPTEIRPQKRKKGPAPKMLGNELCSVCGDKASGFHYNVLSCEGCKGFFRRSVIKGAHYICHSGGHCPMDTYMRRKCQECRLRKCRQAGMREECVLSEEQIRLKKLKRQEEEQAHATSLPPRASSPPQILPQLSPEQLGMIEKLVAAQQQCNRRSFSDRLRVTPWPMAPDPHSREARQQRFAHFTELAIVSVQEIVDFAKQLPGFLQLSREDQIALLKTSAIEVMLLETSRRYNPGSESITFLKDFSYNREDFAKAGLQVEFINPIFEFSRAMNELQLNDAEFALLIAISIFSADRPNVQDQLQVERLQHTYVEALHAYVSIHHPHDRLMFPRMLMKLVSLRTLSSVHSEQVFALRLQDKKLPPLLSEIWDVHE

[19] = Clearance in rat at 2 mg/kg, iv; assay type: ADME, organism-based; conditions: in vivo
[20] = Volume of distribution at steady state in cynomolgus monkey at 1 mg/kg, iv; assay type: ADME, organism-based, Macaca fascicularis; conditions: in vivo, read-out: Vdss
[21] = Solubility of compound at pH 1; assay type: physicochemical; conditions: buffer
[22] = Volume of distribution at steady state in BALB/c mouse at 2 mg/kg, iv; assay type: ADME, organism-based; conditions: in vivo, read-out: Vdss
[23] = Metabolic stability in cynomolgous monkey liver microsomes assessed as half life; assay type: ADME, Macaca fascicularis, Microsome; conditions: cynomolgus monkey
[24] = Total AUC in cynomolgus monkey at 1 mg/kg, iv; assay type: ADME, organism-based, Macaca fascicularis; set-up: time AUCmax, route intravenous, dose 1 mg/kg; conditions: in vivo
[25] = Oral bioavailability in dog at 2 mg/kg; assay type: ADME, organism-based, Canis lupus familiaris; conditions: in vivo
[26] = Metabolic stability in human liver microsomes assessed as half life; assay type: ADME, Microsome
[27] = Cmax in dog at 2 mg/kg, po; assay type: ADME, organism-based, Canis lupus familiaris; set-up: route oral, dose 2 mg/kg; conditions: in vivo
[28] = Total AUC in BALB/c mouse at 4 mg/kg, po; assay type: ADME, organism-based; set-up: time AUCmax, route oral, dose 4 mg/kg; conditions: in vivo
[29] = Total AUC in rat at 4 mg/kg, po; assay type: ADME, organism-based; set-up: time AUCmax, route oral, dose 4 mg/kg; conditions: in vivo
[30] = Metabolic stability in dog liver microsomes assessed as half life; assay type: ADME, Canis lupus familiaris, Microsome
[31] = Permeability in human Caco-2 cells; assay type: ADME, cell-based; conditions: read-out: permeability

fraction unbound [1]: 0.012 | half-life [3]: 28 h | clearance [4]: 1.1 mL/min/kg | clearance [5]: 0.3 mL/min/kg | AUC [6]: 20 µM·h | bioavailability [7]: 100% | IC50 [8]: > 20 µM | AUC [9]: 144 µM·h | Vd [10]: 1.3 L/kg | IC50 [11]: > 20 µM | AUC [12]: 80 µM·h | IC50 [13]: > 20 µM | IC50 [14]: > 20 µM | EC50 [15]: > 7.5 µM | fraction unbound [16]: 0.016 | bioavailability [17]: 100% | EC50 [18]: > 12 µM | clearance [19]: 2.6 mL/min/kg | Vd [20]: 1.2 L/kg | solubility [21]: 1.4 µg/mL (≈ 2.1 µM) | Vd [22]: 1.6 L/kg | half-life [23]: > 2 h | AUC [24]: 23 µM·h | bioavailability [25]: 90% | half-life [26]: > 2 h | Cmax [27]: 3.8 µM | AUC [28]: 39 µM·h | AUC [29]: 44 µM·h | half-life [30]: > 2 h | Papp [31]: 12 ×10⁻⁶ cm/s
SMILES: C[C@H]1C[C@H](C(=O)O)CC[C@H]1C(=O)N1CC[C@@]2(S(=O)(=O)c3ccccc3)c3cc(F)c(C(F)(C(F)(F)F)C(F)(F)F)cc3CC[C@@H]12
IC50 [2]: 18 µM
